Measurements reported in patent US20260273028A1, “PEROXIDASE COMPOSITIONS CONTAINING IMPROVED ENHANCING AGENTS” (FLEN HEALTH PHARMA NV, priority 2022, published 2026).

Tests used:
[1] = exemplary values; cited from earlier work
S. aureus (ATCC®6538™) = assay: Microbial challenge testing in alginogel with GOX+LPO; type: cell-based; settings: for reduction in absolute S. aureus counts compared to guaiacol in the same concentration: alginogel with GOX+LPO, enhancer 0.0005%; for antimicrobial activity of enhancing candidate only against S. aureus: alginogel without enzymes, highest concentration tested; for reduction in absolute S. aureus counts compared to reference (enzymes only): alginogel, 0.0075% GOX+LPO
Experimental: (§1) To determine the ability of an antimicrobial agent to elicit an antimicrobial preserving efficacy in a gel environment, a microbiological challenge test can be performed. Here, the antimicrobial agent is a combination of the natural enzymes GOX+LPO. […] Microbial challenge testing was performed according to the method described in the European Pharmacopoeia current version chapter 5.1.3 ‘Efficacy of antimicrobial preservation’, but with adapted time points (0, 10, 20, 30, 40, 50, 60, 70 and 80 min instead of 0, 2, 7, 14 and 28 days). In brief, for every enhancing agent to be evaluated, a lab-scale alginogel (based on the Flaminal® formulation, but without the original enhancer guaiacol) including 0.0075% GOX+LPO (1:1) was prepared according to standard practices. Enhancing agents were added to the alginogel in a final concentration ranging from 0.01 to 0,00025% (v/w). As a reference, an alginogel including 0.0075% GOX+LPO (1:1) without the addition of any enhancing agent was included (designated as: enzymes only). As a control, an alginogel without both GOX+LPO (1:1) enzyme solution and enhancing agent (designated as: empty gel) as well as an alginogel only containing the enhancing agent only (designated as: enhancing candidate only) were included. After preparation, a homogenous sample of 10 g was transferred into a 50 ml conical tube for each alginogel to be evaluated and microorganism to be tested. For each test microorganism, including S. aureus (ATCC®6538™), P. aeruginosa (ATCC®9027™), C. albicans (ATCC®10231™) and A. niger (ATCC®16404 ™), a microbial suspension of about 10^8 CFU/ml was prepared in sterile diluent (buffered sodium chloride-peptone solution). Then, the 50 ml conical tubes containing the alginogel samples to be evaluated were inoculated with 100 μl of the designated inoculum. At the start (time point 0) and after 0, 10, 20, 30, 40, 50, 60, 70 and 80 min, the number of viable microorganisms per gram product (expressed as CFU/g) was determined by transferring a sample of 0.5 g of the product into a 15 ml conical tube containing 4.5 ml of sterile diluent and applying general dilution and plate count techniques. For each combination evaluated, this test was repeated at least 1-3 times. The collected data were further analyzed in MS Excel. Mean absolute counts (expressed as log CFU/g) were visualized in a graph.
The purpose of the hereby described experiment was to compare the efficacy of antimicrobial activity enhancement of the GOX+LPO (1:1) enzyme combination by ethanolamine and proline in a microbial challenge test using S. aureus. The test was set up as described in the section on ‘challenge testing’ in Example 2.4. The test was repeated at least 3 times.
The purpose of the hereby described experiment was to compare the efficacy of antimicrobial activity of the GOX+LPO (1:1) enzyme combination in the presence of potassium chloride/potassium bromide and potassium iodide. A microbial challenge test using S. aureus was performed. The test was set up as described in the section on ‘challenge testing’ in Example 2.4.

[2] = tested on: Aspergillus niger ATCC®16404™; assay: Absolute microbial counts in function of enzyme solution concentration; type: cell-based; settings: 0.005%-0.000156% (v/v) GOX+LPO
Source text: (§2) Absolute microbial counts in function of concentration of the antimicrobial agent tested are useful to monitor the bactericidal and fungicidal efficacy of that agent.
(§3) To determine the absolute number of live microorganisms in function of different enzyme solution concentrations tested, a classical broth microdilution assay combined with standard CFU enumeration techniques was used to determine the susceptibility of a series of microbes commonly detected in infected wounds, including (a) the Gram-positive bacterium Staphylococcus aureus ATCC® 6538™ (results shown below), (b) the Gram-negative bacterium Pseudomonas aeruginosa ATCC®9027™ (results shown below), (c) the yeast Candida albicans ATCC®10231™ (results shown below), and (d) the fungus Aspergillus niger ATCC®16404™ (results shown below). In brief, the broth microdilution assay was set up as previously described (see 2.1). After incubation, the absolute microbial count at the MIC and following higher concentrations (MICx2, MICx4, and so on) was determined using standard CFU enumeration techniques. For each combination evaluated, this test was repeated at least 5 times. The collected data were further analyzed in MS Excel and expressed as log CFU/ml. Mean results were plotted in function of enzyme solution concentration.

[3] = tested on: Pseudomonas aeruginosa ATCC®9027™; assay: as above; type: cell-based; settings: for reduction in absolute P. aeruginosa counts compared to reference and guaiacol solution: 0.005%-0.0000391% (v/v) GOX+LPO
Source text: as §2, §3

A. niger (ATCC®16404 ™) = assay: Microbial challenge testing in alginogel with GOX+LPO; type: cell-based; settings: for reduction in absolute A. niger counts compared to guaiacol in the same concentration: alginogel with GOX+LPO; for antimicrobial activity of enhancing candidate only against A. niger: alginogel without enzymes, highest concentration tested; for reduction in absolute A. niger counts compared to reference (enzymes only): alginogel, 0.0075% GOX+LPO
Experimental: as §1

[4] = tested on: P. aeruginosa (ATCC®9027™); assay: as above; type: cell-based; settings: for reduction in absolute P. aeruginosa counts compared to guaiacol in the same concentration: alginogel with GOX+LPO, enhancer 0.0005%; for antimicrobial activity of enhancing candidate only against P. aeruginosa: alginogel without enzymes, highest concentration tested; for reduction in absolute P. aeruginosa counts compared to reference (enzymes only): alginogel, 0.0075% GOX+LPO
Experimental: as §1

[5] = tested on: C. albicans (ATCC®10231™); assay: as above; type: cell-based; settings: for reduction in absolute C. albicans counts compared to guaiacol in the same concentration: alginogel with GOX+LPO, enhancer 0.0005%; for antimicrobial activity of enhancing candidate only against C. albicans: alginogel without enzymes, highest concentration tested; for reduction in absolute C. albicans counts compared to reference (enzymes only): alginogel, 0.0075% GOX+LPO
Experimental: as §1

[6] = enhancer 0,1%, 0,005%-0.000625% (v/v) GOX+LPO
[7] = enhancer 1%, 0,005%-0.000156% (v/v) GOX+LPO

SMILES | LogP (octanol/water partition coefficient) [1] | reduction in absolute S. aureus counts compared to guaiacol in the same concentration (S. aureus (ATCC®6538™)) | antimicrobial activity of enhancing candidate only against S. aureus (S. aureus (ATCC®6538™)) | reduction in absolute S. aureus counts compared to reference (enzymes only) (S. aureus (ATCC®6538™); enhancer 0.00125-0.0005%) | reduction in absolute S. aureus counts compared to reference (enzymes only) (S. aureus (ATCC®6538™); enhancer 0.0025%) | reduction in absolute A. niger counts compared to reference ([2]; enhancer 1-0.01%) | reduction in absolute P. aeruginosa counts compared to reference and guaiacol solution ([3]; enhancer 0.0025-0.00125%) | reduction in absolute A. niger counts compared to guaiacol in the same concentration (A. niger (ATCC®16404 ™); enhancer 0.0005%) | antimicrobial activity of enhancing candidate only against A. niger (A. niger (ATCC®16404 ™)) | reduction in absolute A. niger counts compared to reference (enzymes only) (A. niger (ATCC®16404 ™); enhancer 0,0025-0,0005%) | reduction in absolute P. aeruginosa counts compared to guaiacol in the same concentration [4] | antimicrobial activity of enhancing candidate only against P. aeruginosa [4] | reduction in absolute P. aeruginosa counts compared to reference (enzymes only) ([4]; enhancer 0.00125-0.0005%) | reduction in absolute P. aeruginosa counts compared to reference (enzymes only) ([4]; enhancer 0.0025%) | reduction in absolute C. albicans counts compared to guaiacol in the same concentration [5] | antimicrobial activity of enhancing candidate only against C. albicans [5] | reduction in absolute C. albicans counts compared to reference (enzymes only) ([5]; enhancer 0.00125%) | reduction in absolute C. albicans counts compared to reference (enzymes only) ([5]; enhancer 0.0025%) | reduction in absolute P. aeruginosa counts compared to reference [3, 6] | reduction in absolute P. aeruginosa counts compared to reference [3, 7] | also measured
N[C@@H](CO)C(=O)O [Serine, serine] | LogP = −3.07 | faster complete reduction | no antimicrobial activity | faster complete reduction | immediate entire reduction | stronger reduction | stronger reduction | faster complete reduction | no antimicrobial activity | faster complete reduction | faster complete reduction | no antimicrobial activity | faster complete reduction | immediate entire reduction | faster complete reduction | no antimicrobial activity | faster complete reduction | immediate entire reduction | – | – | reduction in absolute P. aeruginosa counts compared to reference and guaiacol solution ([3]; enhancer 0.01-0.005%): stronger reduction
NC(=O)CC[C@H](N)C(=O)O [Glutamine, glutamine] | LogP = −3.15 | faster complete reduction | no antimicrobial activity | faster complete reduction | immediate entire reduction | stronger reduction | – | – | no antimicrobial activity | – | faster complete reduction | no antimicrobial activity | faster complete reduction | immediate entire reduction | faster complete reduction | no antimicrobial activity | – | immediate entire reduction | stronger reduction | stronger reduction | reduction in absolute A. niger counts compared to guaiacol in the same concentration (A. niger (ATCC®16404 ™); enhancer 0.0025%): faster complete reduction; reduction in absolute A. niger counts compared to reference (enzymes only) (A. niger (ATCC®16404 ™); enhancer 0.0025%): faster complete reduction; reduction in absolute C. albicans counts compared to reference (enzymes only) ([5]; enhancer 0,00125-0,0005%): faster complete reduction
CC[C@H](C)[C@H](N)C(=O)O [Isoleucine, isoleucine] | LogP = −1.72 | faster complete reduction | no antimicrobial activity | faster complete reduction | immediate entire reduction | – | – | faster complete reduction | no antimicrobial activity | faster complete reduction | faster complete reduction | no antimicrobial activity | faster complete reduction | immediate entire reduction | faster complete reduction | no antimicrobial activity | – | immediate entire reduction | stronger reduction | stronger reduction | reduction in absolute A. niger counts compared to reference ([2]; enhancer 1-0.005%): stronger reduction; reduction in absolute C. albicans counts compared to reference (enzymes only) ([5]; enhancer 0,00125-0,0005%): faster complete reduction
O=C(O)[C@@H]1CCCN1 [Proline, proline] | LogP = −2.54 | faster complete reduction | no antimicrobial activity | faster complete reduction | immediate entire reduction | stronger reduction | stronger reduction | faster complete reduction | no antimicrobial activity | – | faster complete reduction | no antimicrobial activity | faster complete reduction | immediate entire reduction | faster complete reduction | no antimicrobial activity | faster complete reduction | immediate entire reduction | – | – | exposure time to complete reduction of absolute S. aureus counts (average) (S. aureus (ATCC®6538™); alginogel with GOX+LPO (1:1), enhancer 0,0005% (v/v)): 60 min; reduction in absolute P. aeruginosa counts compared to reference and guaiacol solution ([3]; enhancer 0.01-0.001%): stronger reduction; reduction in absolute A. niger counts compared to reference (enzymes only) (A. niger (ATCC®16404 ™); enhancer 0.0025%): faster complete reduction
